Assay results: US8557741B2, “3-aminocarbonyl-substituted benzoylcyclohexanediones and their use as herbicides” (Bayer CropScience AG, priority 2010, dated 2013)

Key:
Assay type in all cases: in vivo
Fallopia convolvulus = assay: Post-emergence herbicidal action against harmful plants; conditions: 504 h, dosage 80 g/ha, visual rating after about 3 weeks (Table D), read-out: Herbicidal action against POLCO
From the text: (§1) The abbreviations used in the tables below denote: • ABUTH Abutilon theophrasti • AMARE Amaranthus retroflexus • ECHCG Echinochloa crus galli • PHBPU Phartoitis purpureum • STEME Stellaria media • ALOMY Alopecurus myosuroides • AVEFA Avena fatua • MATIN Matricaria inodora • POLCO Fallopia convolvulus • VERPE Veronica persica 1. Pre-emergence Herbicidal Action Against Harmful Plants Seeds of monocotyledonous and dicotyledonous weed and crop plants are placed in sandy loam in wood-fibre pots, covered with soil and cultivated in a greenhouse under good growth conditions. 2 to 3 weeks after sowing, the test plants are treated at the one-leaf stage. The compounds according to the invention, formulated in the form of wettable powders (WP) or as emulsion concentrates (EC), are then sprayed as aqueous suspension or emulsion at a water application rate of 600 to 800 I/ha (converted) with the addition of 0.2% of wetting agent onto the green parts of the plants. After the test plants have been kept in the greenhouse under optimum growth conditions for about 3 weeks, the activity of the preparations is rated visually in comparison to untreated controls (herbicidal activity in percent (%): 100% activity=the plants have died, 0% activity=control plants, —=not tested).

Matricaria inodora [1] = assay: as above; conditions: Tripleurospermum inodorum, 504 h, read-out: Herbicidal action against MATIN; for pest or weed control at 80 g/ha: dosage 80 g/ha, visual rating after about 3 weeks (Table D); for pest or weed control at 20 g/ha: dosage 20 g/ha, visual rating after about 3 weeks (Table F)
From the text: as §1

Echinochloa crus galli [2] = assay: as above; conditions: 504 h, read-out: Herbicidal action against ECHCG; for pest or weed control at 80 g/ha: dosage 80 g/ha, visual rating after about 3 weeks (Table D); for pest or weed control at 20 g/ha: dosage 20 g/ha, visual rating after about 3 weeks (Table F)
From the text: as §1

Amaranthus retroflexus [3] = assay: as above; conditions: 504 h, read-out: Herbicidal action against AMARE; for pest or weed control at 80 g/ha: dosage 80 g/ha, visual rating after about 3 weeks (Table D); for pest or weed control at 20 g/ha: dosage 20 g/ha, visual rating after about 3 weeks (Table F)
From the text: as §1

Veronica persica [4] = assay: as above; conditions: 504 h, read-out: Herbicidal action against VERPE; for pest or weed control at 80 g/ha: dosage 80 g/ha, visual rating after about 3 weeks (Table D); for pest or weed control at 20 g/ha: dosage 20 g/ha, visual rating after about 3 weeks (Table F)
From the text: as §1

Phartoitis purpureum = assay: as above; conditions: 504 h; for pest or weed control at 80 g/ha: dosage 80 g/ha, visual rating after about 3 weeks (Table D), read-out: Herbicidal action against PHBPU; for pest or weed control at 20 g/ha: dosage 20 g/ha, visual rating after about 3 weeks (Table F), read-out: Herbicidal action against PHPBU
From the text: as §1

Stellaria media [5] = assay: as above; conditions: 504 h, read-out: Herbicidal action against STEME; for pest or weed control at 80 g/ha: dosage 80 g/ha, visual rating after about 3 weeks (Table D); for pest or weed control at 20 g/ha: dosage 20 g/ha, visual rating after about 3 weeks (Table F)
From the text: as §1

Abutilon theophrasti [6] = assay: as above; conditions: 504 h, read-out: Herbicidal action against ABUTH; for pest or weed control at 80 g/ha: dosage 80 g/ha, visual rating after about 3 weeks (Table D); for pest or weed control at 20 g/ha: dosage 20 g/ha, visual rating after about 3 weeks (Table F)
From the text: as §1

Matricaria inodora [7] = assay: Pre-emergence herbicidal action against harmful plants; conditions: Tripleurospermum inodorum, 504 h, dosage 320 g/ha, visual assessment after 3 weeks (Table A), read-out: Herbicidal action against MATIN
From the text: (§2) The abbreviations used in the tables below denote: • ABUTH Abutilon theophrasti • AMARE Amaranthus retroflexus • ECHCG Echinochloa crus galli • PHBPU Phartoitis purpureum • STEME Stellaria media • ALOMY Alopecurus myosuroides • AVEFA Avena fatua • MATIN Matricaria inodora • POLCO Fallopia convolvulus • VERPE Veronica persica 1. Pre-emergence Herbicidal Action Against Harmful Plants Seeds of monocotyledonous and dicotyledonous weed plants and crop plants are placed in wood-fibre pots in sandy loam and covered with soil. The compounds according to the invention and the compounds known from the prior art, formulated in the form of wettable powders (WP) or as emulsion concentrates (EC), are then applied as aqueous suspension or emulsion at a water application rate of 600 to 800 I/ha (converted) with the addition of 0.2% of wetting agent to the surface of the covering soil. After the treatment, the pots are placed in a greenhouse and kept under good growth conditions for the test plants. The visual assessment of the damage to the test plants is carried out after a trial period of 3 weeks by comparison with untreated controls (herbicidal activity in percent (%): 100% activity=the plants have died, 0% activity=like control plants, —=not tested). The results of comparative table A show the compounds according to the invention have a higher herbicidal activity than the compounds of the greatest structural similarity known from the closest prior art.

Echinochloa crus galli [8] = assay: as above; conditions: Echinochloa, 504 h, dosage 320 g/ha, visual assessment after 3 weeks (Table A), read-out: Herbicidal action against ECHCG
From the text: as §2

Amaranthus retroflexus [9] = assay: as above; conditions: 504 h, read-out: Herbicidal action against AMARE; for pest or weed control at 320 g/ha: dosage 320 g/ha, visual assessment after 3 weeks (Table A); for pest or weed control at 80 g/ha: dosage 80 g/ha, visual assessment after 3 weeks (Table B)
From the text: as §2

Veronica persica [10] = assay: as above; conditions: 504 h, read-out: Herbicidal action against VERPE; for pest or weed control at 320 g/ha: dosage 320 g/ha, visual assessment after 3 weeks (Table A); for pest or weed control at 80 g/ha: dosage 80 g/ha, visual assessment after 3 weeks (Table B)
From the text: as §2

Stellaria media [11] = assay: as above; conditions: 504 h, read-out: Herbicidal action against STEME; for pest or weed control at 320 g/ha: dosage 320 g/ha, visual assessment after 3 weeks (Table A); for pest or weed control at 80 g/ha: dosage 80 g/ha, visual assessment after 3 weeks (Table B)
From the text: as §2

Avena fatua = assay: as above; conditions: dosage 320 g/ha, visual assessment after 3 weeks (Table A)
From the text: as §2

Abutilon theophrasti [12] = assay: as above; conditions: Abutilon theophrasti, 504 h, read-out: Herbicidal action against ABUTH; for pest or weed control at 320 g/ha: dosage 320 g/ha, visual assessment after 3 weeks (Table A); for pest or weed control at 80 g/ha: dosage 80 g/ha, visual assessment after 3 weeks (Table B)
From the text: as §2

VIOTR [13] = assay: as above; conditions: dosage 80 g/ha, visual assessment after 3 weeks (Table B)
From the text: as §2, with “Seeds” for “The abbreviations used in the tables below denote: • ABUTH Abutilon theophrasti • AMARE Amaranthus retroflexus • ECHCG Echinochloa crus galli • PHBPU Phartoitis purpureum • STEME Stellaria media • ALOMY Alopecurus myosuroides • AVEFA Avena fatua • MATIN Matricaria inodora • POLCO Fallopia convolvulus • VERPE Veronica persica 1. Pre-emergence Herbicidal Action Against Harmful Plants Seeds”

VIOTR [14] = assay: Post-emergence herbicidal action against harmful plants; conditions: dosage 20 g/ha, visual rating after about 3 weeks (Table F)
Method: as §1, with “Seeds” for “The abbreviations used in the tables below denote: • ABUTH Abutilon theophrasti • AMARE Amaranthus retroflexus • ECHCG Echinochloa crus galli • PHBPU Phartoitis purpureum • STEME Stellaria media • ALOMY Alopecurus myosuroides • AVEFA Avena fatua • MATIN Matricaria inodora • POLCO Fallopia convolvulus • VERPE Veronica persica 1. Pre-emergence Herbicidal Action Against Harmful Plants Seeds”

Alopecurus myosuroides = assay: Pre-emergence herbicidal action against harmful plants; conditions: dosage 320 g/ha, visual assessment after 3 weeks (Table A)
From the text: as §2

SMILES | pest or weed control at 80 g/ha (Fallopia convolvulus) | pest or weed control at 80 g/ha (Echinochloa crus galli [2]) | pest or weed control at 80 g/ha (Amaranthus retroflexus [3]) | pest or weed control at 80 g/ha (Veronica persica [4]) | pest or weed control at 80 g/ha (Phartoitis purpureum) | pest or weed control at 80 g/ha (Stellaria media [5]) | pest or weed control at 80 g/ha (Abutilon theophrasti [6]) | pest or weed control at 320 g/ha (Matricaria inodora [7]) | pest or weed control at 320 g/ha (Echinochloa crus galli [8]) | pest or weed control at 320 g/ha (Amaranthus retroflexus [9]) | pest or weed control at 320 g/ha (Veronica persica [10]) | pest or weed control at 320 g/ha (Stellaria media [11]) | pest or weed control at 320 g/ha (Abutilon theophrasti [12]) | pest or weed control at 20 g/ha (Veronica persica [4]) | pest or weed control at 20 g/ha (Phartoitis purpureum) | pest or weed control at 20 g/ha (Stellaria media [5]) | Herbicidal action against VIOTR (VIOTR [14]) | pest or weed control at 80 g/ha (Abutilon theophrasti [12]) | other results
CCN(C)C(=O)COc1c(S(C)(=O)=O)ccc(C(=O)C2=C(O)CCCC2=O)c1Cl [Compound S7, reference compound] | 10% | 60% | 70% | 100% | 90% | 90% | 90% | 100% | 80% | 100% | 100% | 90% | 80% | – | – | – | – | – | pest or weed control at 80 g/ha (Matricaria inodora [1]): 80%; Herbicidal action against AVEFA (Avena fatua): 0%
CCS(=O)(=O)c1ccc(C(=O)C2=C(O)CCCC2=O)c(C(F)(F)F)c1OC(C)C(=O)NC (stereo not shown) [Compound E11] | – | – | – | – | – | – | – | – | – | – | – | – | – | 100% | 80% | 90% | 100% | 90% | Herbicidal action against VIOTR (VIOTR [13]): 90%; pest or weed control at 20 g/ha (Matricaria inodora [1]): 90%; pest or weed control at 20 g/ha (Amaranthus retroflexus [3]): 100%; pest or weed control at 80 g/ha (Stellaria media [11]): 70%
CCS(=O)(=O)c1ccc(C(=O)C2=C(SCC(=O)OC)CCCC2=O)c(C(F)(F)F)c1OCC(=O)N(C)C [Compound E9] | – | – | – | – | – | – | – | – | – | – | – | – | – | 100% | 80% | 90% | 100% | 90% | pest or weed control at 20 g/ha (Echinochloa crus galli [2]): 90%; pest or weed control at 20 g/ha (Abutilon theophrasti [6]): 100%; pest or weed control at 80 g/ha (Amaranthus retroflexus [9]): 90%; pest or weed control at 80 g/ha (Veronica persica [10]): 90%
CCS(=O)(=O)c1ccc(C(=O)C2=C(O)CCCC2=O)c(Cl)c1OCC(=O)N(C)C [Compound S5, reference compound] | 20% | 40% | 80% | 100% | 60% | 80% | 90% | 90% | 100% | 100% | 100% | 90% | 90% | – | – | – | – | – | Herbicidal action against ALOMY (Alopecurus myosuroides): 0%
CCS(=O)(=O)c1ccc(C(=O)C2=C(O)CCCC2=O)c(Cl)c1OC(C)C(=O)NC (stereo not shown) [Compound S11, reference compound] | – | – | – | – | – | – | – | – | – | – | – | – | – | 90% | 70% | 80% | 70% | 70% | Herbicidal action against VIOTR (VIOTR [13]): 40%; pest or weed control at 20 g/ha (Matricaria inodora [1]): 70%; pest or weed control at 20 g/ha (Amaranthus retroflexus [3]): 90%; pest or weed control at 80 g/ha (Stellaria media [11]): 30%
CCS(=O)(=O)c1ccc(C(=O)C2=C(O)CCCC2=O)c(C(F)(F)F)c1OCC(=O)N(C)C [Compound E5] | 80% | 90% | 80% | 100% | 90% | 90% | 90% | 100% | 100% | 100% | 100% | 90% | 100% | – | – | – | – | – | Herbicidal action against ALOMY (Alopecurus myosuroides): 100%
CCN(C)C(=O)COc1c(S(C)(=O)=O)ccc(C(=O)C2=C(O)CCCC2=O)c1C(F)(F)F [Compound E7] | 80% | 90% | 100% | 100% | 100% | 100% | 90% | 100% | 100% | 100% | 100% | 100% | 100% | – | – | – | – | – | pest or weed control at 80 g/ha (Matricaria inodora [1]): 100%; Herbicidal action against AVEFA (Avena fatua): 80%
CCS(=O)(=O)c1ccc(C(=O)C2=C(SCC(=O)OC)CCCC2=O)c(Cl)c1OCC(=O)N(C)C [Compound S9, reference compound] | – | – | – | – | – | – | – | – | – | – | – | – | – | 80% | 60% | 70% | 60% | 20% | pest or weed control at 20 g/ha (Echinochloa crus galli [2]): 90%; pest or weed control at 20 g/ha (Abutilon theophrasti [6]): 80%; pest or weed control at 80 g/ha (Amaranthus retroflexus [9]): 40%; pest or weed control at 80 g/ha (Veronica persica [10]): 20%
